From patent US20230024554A1, “METHOD OF CHARACTERIZING THE BINDING CHARACTERISTICS BETWEEN A PEPTIDE OF INTEREST AND MHC MOLECULES” (Immatics Biotechnologies GmbH, priority 2021, published 2023)
Ends that are not written are not given here.

Experiments:
T98G cells = experiment: Peptide loading of T98G cells with PRAME peptide isotopologues; absolute copy numbers by AbsQuant (immunoprecipitation and LC/MS); format: cell-based; conditions: peptide-loaded T98G cells; 1 nM is ~0.001 μg/mL
Protocol: (§1) In order to translate detected relative ion intensities into an absolute measure, isotopologue-specific external calibration curves were acquired in two technical replicates. Therefore, a total of seven different isotopologues (Table 2; reconstituted as described above) were mixed to a final concentration of 20 pmol μL^−1. This stock was subsequently further titrated in 5% formic acid prior to LC/MS analysis. The internal standard PRAME peptide_L3L6 was added at a constant amount of 100 fmol per LC/MS injection. Samples were separated by reversed-phase chromatography (nanoAcquity UPLC, Waters, Milford, Mass.) using ACQUITY UPLC BEH C18 columns (75 μm×250 mm, Waters, Milford, Mass.) and a gradient ranging from 1 to 34.5% ACN over the course of 35 min. […]
(§2) The functional analysis of PRAME-loaded T98G cells was assessed in a co-culture setup. […]
(§3) In brief, 2.5×10^7 T98G (or 2×10^7 Hs695T) cells were incubated in 40 ml DMEM+10% FCS supplemented with the respective concentration of peptide for 2 h at 37° C., 5% C02. […] By adding specific substrate, the amount of LDH present in the supernatant was determined by measuring the colorimetric signal in a microplate reader. […]

Hs695T cells = experiment: Peptide loading of Hs695T cells with PRAME peptide isotopologues; absolute copy numbers by AbsQuant (immunoprecipitation and LC/MS); format: cell-based; conditions: peptide-loaded Hs695T cells; 1 nM is ~0.001 μg/mL
Protocol: as §1, §2, §3

T2 cells = experiment: Peptide loading of T2 cells with KLK3 peptide isotopologues; absolute pMHC copy numbers by BB7.2 immunoprecipitation and LC/MS; format: cell-based, human; conditions: T2 cells loaded at 0.1 μg/mL (~81 nM) peptide, 2 h incubation
Protocol: In order to translate detected relative ion intensities into an absolute measure, isotopologue-specific external calibration curves were acquired in two technical replicates. Therefore, a total of six different isotopologues (Table 1; reconstituted as described above) were mixed to a final concentration of 20 pmol μL^−1. This stock was subsequently further titrated in 5% formic acid prior to LC/MS analysis. The internal standard KLK3 peptide_L2P5 was added at a constant amount of 5 fmol per LC/MS injection. Samples were separated by reversed-phase chromatography (nanoAcquity UPLC, Waters, Milford, Mass.) using ACQUITY UPLC BEH C18 columns (75 μm×250 mm, Waters, Milford, Mass.) and a gradient ranging from 1 to 34.5% ACN over the course of 35 min. Mass spectrometry was performed on an online coupled Orbitrap Fusion Tribrid mass spectrometer (Thermo Fisher Scientific, Waltham, Mass.) in scheduled parallel reaction monitoring (sPRM) mode following collisional-induced dissociation (CID) of selected precursor ions. Subsequent peak boundary integration was performed in Skyline (MacLean et al., 2010).
The T2 cell line was obtained from DSMZ (ACC 598, lot #2). Cells were cultured in RPMI-1640 medium (Gibco, #A1049101) supplemented with 10% heat-inactivated FBS (Gibco, #10270106) in absence of antibiotics, at 37° C. in a humidified atmosphere containing 5% C02. […]

Substance	loading concentration from which copy numbers are detectable (T98G cells)	loading concentration from which copy numbers are detectable (Hs695T cells)	absolute peptide abundance (T2 cells)
SLLQHLIGL (not fully specified; listed as Homo sapiens) [PRAME peptide, PRAME-derived MHC-restricted peptide, loaded as isotopologues]	≥ 1 nM	≥ 1 nM	
SL*F*HPEDTGQV* [KLK3 peptide L2F3V 11]			~10,000 copies per cell
